From PMC12018053 (Biochemistry and Biophysics Reports, 2025)
Values after ≈ are worked out from the molar mass of the structure shown.

Key:
5-HT2C = target: T1, 5-HT2C (Homo sapiens, UniProt P28335); experiment: NIMH PDSP primary binding screen, 5-HT2C; conditions: read-out: Inhibition (%) 5-HT2C
T1 sequence (P28335 33-458): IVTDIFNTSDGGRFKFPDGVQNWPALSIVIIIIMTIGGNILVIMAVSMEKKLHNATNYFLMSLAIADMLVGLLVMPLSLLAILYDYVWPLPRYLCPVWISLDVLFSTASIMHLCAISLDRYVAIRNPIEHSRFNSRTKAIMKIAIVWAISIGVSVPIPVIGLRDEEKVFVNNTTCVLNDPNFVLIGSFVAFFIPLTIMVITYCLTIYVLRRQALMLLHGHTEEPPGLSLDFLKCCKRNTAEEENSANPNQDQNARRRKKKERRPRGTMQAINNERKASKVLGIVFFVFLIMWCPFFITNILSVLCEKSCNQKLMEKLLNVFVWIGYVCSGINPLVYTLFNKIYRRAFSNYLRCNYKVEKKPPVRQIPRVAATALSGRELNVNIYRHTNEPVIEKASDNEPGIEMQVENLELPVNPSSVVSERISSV

Kappa opioid (KOR) = Kappa opioid (KOR) (Homo sapiens, UniProt P41145); experiment: NIMH PDSP primary binding screen, KOR; conditions: read-out: Inhibition (%) Kappa opioid (KOR)
physchem = conditions: sodium phosphate buffer, 24 °C, pH 7.4, aqueous buffer, kinetic from dmso stock
5-HT1B = 5-HT1B (Homo sapiens, UniProt P28222); experiment: NIMH PDSP primary binding screen, 5-HT1B; conditions: read-out: Inhibition (%) 5-HT1B
5-HT3 = target: T2, 5-HT3 (Homo sapiens, UniProt P46098); experiment: NIMH PDSP primary binding screen, 5-HT3; conditions: read-out: Inhibition (%) 5-HT3
T2 sequence (P46098 24-478): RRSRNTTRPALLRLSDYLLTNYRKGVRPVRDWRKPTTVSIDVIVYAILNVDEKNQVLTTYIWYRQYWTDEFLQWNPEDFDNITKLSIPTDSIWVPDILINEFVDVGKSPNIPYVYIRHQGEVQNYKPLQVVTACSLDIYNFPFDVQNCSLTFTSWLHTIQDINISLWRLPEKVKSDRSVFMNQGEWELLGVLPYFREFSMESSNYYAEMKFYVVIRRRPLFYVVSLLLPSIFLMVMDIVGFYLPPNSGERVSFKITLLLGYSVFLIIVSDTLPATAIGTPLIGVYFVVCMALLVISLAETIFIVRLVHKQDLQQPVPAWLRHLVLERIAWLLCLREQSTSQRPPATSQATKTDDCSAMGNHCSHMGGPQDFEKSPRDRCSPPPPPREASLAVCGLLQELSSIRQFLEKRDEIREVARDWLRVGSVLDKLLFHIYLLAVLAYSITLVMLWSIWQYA

5-HT1A = target: T3, 5-HT1A (Homo sapiens, UniProt P08908); experiment: NIMH PDSP primary binding screen, 5-HT1A; conditions: read-out: Inhibition (%) 5-HT1A
T3 sequence (P08908 1-422): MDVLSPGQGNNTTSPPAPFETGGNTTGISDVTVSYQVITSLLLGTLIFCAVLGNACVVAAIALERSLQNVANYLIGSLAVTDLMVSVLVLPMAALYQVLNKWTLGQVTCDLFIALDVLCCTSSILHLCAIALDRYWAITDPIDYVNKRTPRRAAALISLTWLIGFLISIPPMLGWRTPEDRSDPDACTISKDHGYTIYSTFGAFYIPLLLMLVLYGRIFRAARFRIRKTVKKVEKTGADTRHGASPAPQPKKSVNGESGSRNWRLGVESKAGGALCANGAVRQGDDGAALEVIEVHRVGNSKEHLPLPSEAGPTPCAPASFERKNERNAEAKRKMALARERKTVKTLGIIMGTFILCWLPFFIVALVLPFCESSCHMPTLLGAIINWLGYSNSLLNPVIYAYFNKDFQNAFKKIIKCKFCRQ

Delta opioid (DOR) = Delta opioid (DOR) (Homo sapiens, UniProt P41143); experiment: NIMH PDSP primary binding screen, DOR; conditions: read-out: Inhibition (%) Delta opioid (DOR)
Human sEH = target: T4, Human sEH (Homo sapiens, UniProt P34913); experiment: sEH fluorescent-based inhibition assay; format: biochemical
T4 sequence (P34913 1-555): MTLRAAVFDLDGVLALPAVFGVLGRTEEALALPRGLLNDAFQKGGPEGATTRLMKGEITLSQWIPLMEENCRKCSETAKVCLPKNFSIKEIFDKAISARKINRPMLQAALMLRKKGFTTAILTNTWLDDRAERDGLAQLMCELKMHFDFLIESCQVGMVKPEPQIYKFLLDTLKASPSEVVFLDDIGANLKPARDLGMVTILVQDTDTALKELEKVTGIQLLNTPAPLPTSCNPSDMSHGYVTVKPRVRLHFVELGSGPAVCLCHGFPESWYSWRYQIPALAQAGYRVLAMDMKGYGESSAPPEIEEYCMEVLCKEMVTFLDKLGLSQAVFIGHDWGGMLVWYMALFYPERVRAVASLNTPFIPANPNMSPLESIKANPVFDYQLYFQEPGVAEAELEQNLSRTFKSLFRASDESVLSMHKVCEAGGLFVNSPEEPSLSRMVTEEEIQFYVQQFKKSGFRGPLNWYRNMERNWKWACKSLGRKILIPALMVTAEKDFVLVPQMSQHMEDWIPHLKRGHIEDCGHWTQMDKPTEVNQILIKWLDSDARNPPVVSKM

[1] = Microsomal stability assay in human liver microsomes; format: in vitro ADME; conditions: pH 7.4
5-HT2A = 5-HT2A (Homo sapiens, UniProt P28223); experiment: NIMH PDSP primary binding screen, 5-HT2A; conditions: read-out: Inhibition (%) 5-HT2A
5-HT1D = 5-HT1D (Homo sapiens, UniProt P28221); experiment: NIMH PDSP primary binding screen, 5-HT1D; conditions: read-out: Inhibition (%) 5-HT1D
[2] = Microsomal stability assay in rat liver microsomes; format: in vitro ADME; conditions: pH 7.4
[3] = system: female Sprague-Dawley rats; experiment: Orofacial formalin test without nitroglycerin; format: in vivo, rat; conditions: 3 mg/kg i.p. 30 min before formalin, no nitroglycerin pretreatment

Sequence of 5-HT2A (P28223 whole entry, species assumed): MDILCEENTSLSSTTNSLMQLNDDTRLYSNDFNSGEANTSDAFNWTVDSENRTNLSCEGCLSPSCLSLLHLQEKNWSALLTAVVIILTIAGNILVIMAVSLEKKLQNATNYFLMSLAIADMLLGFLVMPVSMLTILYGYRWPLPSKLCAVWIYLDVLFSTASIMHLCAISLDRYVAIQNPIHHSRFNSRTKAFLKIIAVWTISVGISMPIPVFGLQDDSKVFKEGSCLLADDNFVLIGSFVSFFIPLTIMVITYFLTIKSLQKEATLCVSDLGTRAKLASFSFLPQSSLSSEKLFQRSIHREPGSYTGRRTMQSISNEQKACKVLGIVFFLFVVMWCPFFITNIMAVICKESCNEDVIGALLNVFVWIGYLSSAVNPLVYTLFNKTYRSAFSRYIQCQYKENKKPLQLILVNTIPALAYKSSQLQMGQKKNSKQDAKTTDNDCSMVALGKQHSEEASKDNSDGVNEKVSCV
Sequence of 5-HT1B (P28222 whole entry, species assumed): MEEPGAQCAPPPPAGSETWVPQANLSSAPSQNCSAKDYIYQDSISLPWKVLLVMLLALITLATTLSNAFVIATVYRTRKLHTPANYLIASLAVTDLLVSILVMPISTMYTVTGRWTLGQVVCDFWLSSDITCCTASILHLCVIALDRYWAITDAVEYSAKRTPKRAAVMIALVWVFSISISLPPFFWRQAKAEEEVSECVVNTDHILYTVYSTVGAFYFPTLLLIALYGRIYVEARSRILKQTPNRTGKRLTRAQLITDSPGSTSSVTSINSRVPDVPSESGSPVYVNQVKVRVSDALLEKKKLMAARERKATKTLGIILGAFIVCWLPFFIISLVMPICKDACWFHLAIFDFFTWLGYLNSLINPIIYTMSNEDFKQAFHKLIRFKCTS
Sequence of Kappa opioid (KOR) (P41145 whole entry): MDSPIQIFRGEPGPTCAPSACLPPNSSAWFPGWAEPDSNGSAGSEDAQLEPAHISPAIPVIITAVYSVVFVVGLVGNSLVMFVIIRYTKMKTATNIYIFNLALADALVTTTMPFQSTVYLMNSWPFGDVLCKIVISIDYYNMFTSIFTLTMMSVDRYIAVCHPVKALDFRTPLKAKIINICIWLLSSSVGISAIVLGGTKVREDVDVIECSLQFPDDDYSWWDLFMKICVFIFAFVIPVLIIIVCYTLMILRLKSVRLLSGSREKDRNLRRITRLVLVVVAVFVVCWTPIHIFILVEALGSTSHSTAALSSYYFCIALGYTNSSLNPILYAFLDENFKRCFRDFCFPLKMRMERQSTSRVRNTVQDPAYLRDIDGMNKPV
Sequence of 5-HT1D (P28221 whole entry, species assumed): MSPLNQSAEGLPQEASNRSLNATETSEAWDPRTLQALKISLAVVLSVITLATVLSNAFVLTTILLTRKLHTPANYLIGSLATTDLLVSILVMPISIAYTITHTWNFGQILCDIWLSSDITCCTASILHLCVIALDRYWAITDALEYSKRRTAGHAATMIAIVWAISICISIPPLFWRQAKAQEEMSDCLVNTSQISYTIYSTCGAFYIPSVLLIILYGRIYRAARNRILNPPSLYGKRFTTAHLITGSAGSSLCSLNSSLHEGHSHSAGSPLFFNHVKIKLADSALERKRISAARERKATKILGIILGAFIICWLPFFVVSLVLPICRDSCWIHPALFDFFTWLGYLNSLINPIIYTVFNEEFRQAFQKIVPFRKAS
Sequence of Delta opioid (DOR) (P41143 whole entry): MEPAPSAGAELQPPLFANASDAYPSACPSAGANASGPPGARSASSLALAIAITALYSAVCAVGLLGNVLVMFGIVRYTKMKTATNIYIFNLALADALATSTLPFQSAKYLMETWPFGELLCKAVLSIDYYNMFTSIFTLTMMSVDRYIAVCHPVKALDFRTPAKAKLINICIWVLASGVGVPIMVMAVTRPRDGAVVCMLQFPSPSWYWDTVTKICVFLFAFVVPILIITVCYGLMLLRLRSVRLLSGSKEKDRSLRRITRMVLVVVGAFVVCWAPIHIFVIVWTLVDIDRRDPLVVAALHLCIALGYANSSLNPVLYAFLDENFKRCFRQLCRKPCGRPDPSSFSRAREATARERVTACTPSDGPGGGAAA

O=C(Nc1ccc(-c2ccc3ccncc3c2)cc1)C1CCN(S(=O)(=O)c2ccccc2Cl)CC1 [Compound 4f, 1-((2-chlorophenyl)sulfonyl)-N-(4-(isoquinolin-7-yl)phenyl)piperidine-4-carboxamide]
inhibition at 10 µM (5-HT2C): 21.5 ± 4.63%
inhibition at 10 µM (Kappa opioid (KOR)): -18.1 ± 2.56%
solubility (physchem): 54.4 µM (≈ 27.5 µg/mL)
inhibition at 10 µM (5-HT1B): 12.4 ± 2.29%
inhibition at 10 µM (5-HT3): -0.28 ± 5.94%
inhibition at 10 µM (5-HT1A): 4.83 ± 2.43%
inhibition at 10 µM (Delta opioid (DOR)): 3.1 ± 1.53%
IC50 (Human sEH): 2.2 nM
half-life at 1 µM [1]: 58 min
microsomal CLint at 1 µM [1]: 23.7 µL/min/mg
inhibition at 10 µM (5-HT2A): 17.4 ± 4.69%
inhibition at 10 µM (5-HT1D): 40.9 ± 11.2%
half-life at 1 µM [2]: 25.6 min
microsomal CLint at 1 µM [2]: 54 µL/min/mg
Time spent rubbing the injected area vs vehicle [3]: no significant difference
